Experimental findings from patent US20060280690A1, “Methods of preparing a foam comprising a sclerosing agent” (priority 2003, published 2006) are described below.

The nature of the data set: In vitro absorption of foam/gas in fresh human venous blood. To be noted: 0.5 ml aliquot in 20 ml blood. It is filed as in vitro ADME. Here is the method: In vitro experiments were conducted to determine the absorption of foam made with different gases in fresh human venous blood.
A 20 ml polypropylene syringe barrel was prepared by puncturing its side wall with a relatively large hypodermic needle to make a hole approximately 1 mm in diameter. This hole was then covered by securing a piece of clear flexible vinyl sheet over it with clear adhesive tape. A small magnetic stirrer element was introduced into the syringe barrel and the plunger then replaced. 20 ml of human venous blood was then with withdrawn in the usual manner from a human subject using the specially prepared syringe fitted with a hypodermic needle.
The hypodermic needle was removed and the syringe then placed on a magnetic stirrer unit so that the magnetic element in the syringe thoroughly agitated the blood. The Luer nozzle of the syringe was then connected to a 50 cm piece of manometer tubing which was arranged horizontally and left open at one end. The manometer tubing was secured against a scale.
A 0.5 ml measuring syringe with a fine pre-fitted needle was then filled with foam made from 1% polidocanol solution and air. The density of the foam was 0.13 g/ml (±0.03 g/ml), the liquid component making up approximately 13% of the total volume of foam (±3%).
The needle of the 0.5 ml syringe was then introduced through the vinyl sheet on the side wall of the 20 ml syringe. […] The 0.5 ml aliquot of foam was then injected quickly and simultaneously a timer started (t0). As the foam displaced blood in the 20 ml syringe, the column of blood from the 20 ml syringe was displaced into the manometer tubing and the distance along the tubing reached by the distal end of the blood column was noted against the scale. The scale itself comprised spaced marker lines equally spaced at about 1 cm intervals. It was determined that a distance of 45 intervals on this scale corresponded to an internal volume of in the manometer tubing of approximately 0.5 ml.
As the gas in the foam started to be absorbed by the blood, the blood in the manometer tubing started to recede back towards the syringe. After the column appeared to have stopped moving, the timer was stopped (tF). The position of the distal end was again noted.
In this experiment, the air foam test was only observed for a few minutes after tF. However, further experiments have been conducted by the inventors, the results of which are not formally recorded here, involving foam with a percentage of nitrogen. A 20 ml syringe of fresh human venous blood, as in the above experiments, was injected with a 0.5 ml aliquot of a foam containing a percentage of nitrogen. The contents of the syringe were agitated as above and a period of 24 hours allowed to elapse.

On to `O=O` [Oxygen, oxygen], for which the “Absorbed volume at tF” value was 0.46 mL, the Unabsorbed gas % is recorded as 8% and the Unabsorbed gas ml was 0.04 mL. Further, the “tF” value (time until blood column stopped moving) was 140 s.
